# Target: Human immunodeficiency virus type 1 protease (Human immunodeficiency virus 1, UniProt Q72874)
# Experiment: binding affinity towards HIV-1 Protease enzyme
row,SMILES,Ki
1,CC(C)C[C@@H](NC(=O)[C@H](O)COS(=O)(=O)O)C(=O)N[C@@H]1C(=O)N[C@@H](CCCNC(=N)N)C(=O)N[C@H]2CC[C@H](O)N(C2=O)[C@@H](CC(C)C)C(=O)N(C)[C@H](Cc2ccc(O)cc2)C(=O)N[C@H](C(C)C)C(=O)O[C@@H]1C [PROTEOLYTIC ENZYME INHIBITOR],1 nM
2,N=C(N)NCCC[C@H]1NC(=O)[C@@H]2CCCN2C(=O)[C@@H](NC=O)CNC(=O)/C=C/C(Cc2ccc(O)cc2)NC(=O)[C@@H](Cc2ccccc2)NC(=O)C1=O (stereo partly drawn),10 nM
3,CC(C)C[C@H](CC(=O)NO)C(=O)N[C@H]1Cc2cn(c3ccccc23)CCCCCCNC1=O,1 nM

# Next, values leading:
row,Ki,SMILES
1,800 nM,CC[C@H](C)[C@@H]1NC(=O)[C@@H](NC(=O)[C@@H]2Cc3ccc(cc3)OCCCCC(=O)N[C@@H](C(C)C)C(=O)N2)Cc2ccc(cc2)OCCCNC1=O
2,4 nM,CC[C@H](C)[C@@H]1NC(=O)[C@@H](C(N)C[C@@H](O)C(Cc2ccccc2)NC(=O)OC(C)(C)C)Cc2ccc(cc2)OCCCNC1=O (stereo partly drawn)
3,60000 nM,CC[C@@H](C)[C@H](NC(=O)[C@H](Cc1ccccc1)NC(=O)[C@H](Cc1ccccc1)NC(=O)[C@@H](NC(=O)[C@H](CC(C)C)NC(C)=O)C(C)C)C(=O)N[C@H](C(N)=O)C(C)C
4,3 nM,CC[C@H](C)[C@@H]1NC(=O)[C@@H](C(N)C[C@@H](O)[C@@H]2Cc3ccc(cc3)OCCCCC(=O)N[C@@H](C(C)C)C(=O)N2)Cc2ccc(cc2)OCCCNC1=O (stereo partly drawn)
5,12 nM,CC[C@H](C)[C@H](NC(=O)[C@H](Cc1ccccc1)NC[C@H](O)[C@@H]1Cc2ccc(cc2)OCCCC(=O)N[C@@H](CC(N)=O)C(=O)N1)C(=O)N[C@H](C(N)=O)C(C)C
